This is an account of results in patent US4318925A (priority 1977, dated 1982).

Structures can show the parent of a compound that is named as a salt. Where two headings read alike, the source gives them in different places.

In one series the test system is influenza viruses. The following applies: British Pat. No. 1,063,366; SCIENCE, Vol. 144, 862, (1964); cited from earlier work.
A further series concerns Newcastle diseases virus. The following applies: Koji Aigami et al., J. of Medicinal Chemistry, Vol. 19, 536 (1976); cited from earlier work.
A further series concerns Influenza AoPR/8. Type of series: in vivo, ddY male mice. The following applies: subcutaneous, from 3 hours pre to 150 hours post infection, LLS 7 days after infection, Control (0 mg/kg) 4.8.
The next series can be described thus: in vitro. The following applies: human, kb cells.

For `NC12CC3CC(CC(C3)C1)C2` [1-adamantanamine], in the series on influenza viruses, the “antiviral activity against influenza viruses” value was “show antiviral against influenza viruses”.
For the compound `NC12CCCC3CC(CCC31)C2` (centres unmarked) [3-amino-4-homoisotwistane hydrochloride], in the series with Newcastle diseases virus, the “antiviral activity against Newcastle diseases virus” value is on record as “have antiviral activity against Newcastle diseases virus”.
In the case of `NC12CC3CC(CC(C3)C1)C2` [Amantadine hydrochloride, reference compound], in the series on Influenza AoPR/8 (10 mg/kg), the “Lung Lesion Score” value is reported as 4.3. Moreover, the MCC at 72 h in “in vitro” is > 50 µg/mL.
With `CN(C)CCOCC(=O)NC12CCCC3CC(CCC31)C2` (centres unmarked) [N-[3-(4-homoisotwistyl)]-2-(2-dimethylaminoethoxy)-acetamide hydrochloride], in the series with Influenza AoPR/8 (15 mg/kg), the “Lung Lesion Score” value was found to be 4.33. In the series “in vitro”, the MCC at 72 h was found to be 250 µg/mL.
In turn, `CCOCC(=O)NC12CCCC3CC(CCC31)C2` (centres unmarked) [N-[3-(4-homoisotwistyl)]-2-ethoxyacetamide] yielded an MCC at 72 h in the series “in vitro” of 25 µg/mL.
With `CCCCCOCC(=O)NC12CCCC3CC(CCC31)C2` (centres unmarked) [N-[3-(4-homoisotwistyl)]-2-pentyloxyacetamide], the MCC at 72 h in the series “in vitro” was 5 µg/mL.
Consider `O=C(COc1ccccc1)NC12CCCC3CC(CCC31)C2` (centres unmarked) [N-[3-(4-homoisotwistyl)]-2-phenoxyacetamide], for which the “Lung Lesion Score” value with Influenza AoPR/8 (15 mg/kg) was determined as 4.35.
Take `CCCCCCCCCCCOCC(=O)NC12CCCC3CC(CCC31)C2` (centres unmarked) [N-[3-(4-homoisotwistyl)]-2-undecyloxyacetamide]: the MCC at 72 h in “in vitro” stood at 10 µg/mL.
For `CN(C)CCOCC(=O)N(C)C12CCCC3CC(CCC31)C2` (centres unmarked) [N-methyl, N-[3-(4-homoisotwistyl)]-2-(2-dimethylaminoethoxy) acetamide hydrochloride], the “Lung Lesion Score” value with Influenza AoPR/8 (15 mg/kg) is 4.50.
